Results taken from patent publication US10160762B2, “6-alkyl dihydropyrazolopyrimidinone compounds as PDE2 inhibitors” (Merck Sharp & Dohme Corp., priority 2015, dated 2018).

Target: T1, human PDE2A1 (Homo sapiens, UniProt O00408)
T1 construct: GST; purchased BPS Bioscience (San Diego, Calif.) 60020; host or cells: insect cells
Test: IMAP FP PDE assay, human PDE2A1
Type: biochemical
Conditions: Lab B; read-out: Human PDE2 Ki (nM) Lab B
Outline: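 FP (IMAP) read after 60 min room-temperature reaction of insect-cell GST-human PDE2A1 with 50 nM FAM-cAMP plus 1000 nM cGMP (pH 7.2 Tris, Mg2+, DTT). Compounds titrated 3-fold over ten points. Apparent Ki derived assuming KM of 10,000 nM; enzyme at 20% substrate turnover.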

T1 sequence (O00408 1-920 isoform O00408-2): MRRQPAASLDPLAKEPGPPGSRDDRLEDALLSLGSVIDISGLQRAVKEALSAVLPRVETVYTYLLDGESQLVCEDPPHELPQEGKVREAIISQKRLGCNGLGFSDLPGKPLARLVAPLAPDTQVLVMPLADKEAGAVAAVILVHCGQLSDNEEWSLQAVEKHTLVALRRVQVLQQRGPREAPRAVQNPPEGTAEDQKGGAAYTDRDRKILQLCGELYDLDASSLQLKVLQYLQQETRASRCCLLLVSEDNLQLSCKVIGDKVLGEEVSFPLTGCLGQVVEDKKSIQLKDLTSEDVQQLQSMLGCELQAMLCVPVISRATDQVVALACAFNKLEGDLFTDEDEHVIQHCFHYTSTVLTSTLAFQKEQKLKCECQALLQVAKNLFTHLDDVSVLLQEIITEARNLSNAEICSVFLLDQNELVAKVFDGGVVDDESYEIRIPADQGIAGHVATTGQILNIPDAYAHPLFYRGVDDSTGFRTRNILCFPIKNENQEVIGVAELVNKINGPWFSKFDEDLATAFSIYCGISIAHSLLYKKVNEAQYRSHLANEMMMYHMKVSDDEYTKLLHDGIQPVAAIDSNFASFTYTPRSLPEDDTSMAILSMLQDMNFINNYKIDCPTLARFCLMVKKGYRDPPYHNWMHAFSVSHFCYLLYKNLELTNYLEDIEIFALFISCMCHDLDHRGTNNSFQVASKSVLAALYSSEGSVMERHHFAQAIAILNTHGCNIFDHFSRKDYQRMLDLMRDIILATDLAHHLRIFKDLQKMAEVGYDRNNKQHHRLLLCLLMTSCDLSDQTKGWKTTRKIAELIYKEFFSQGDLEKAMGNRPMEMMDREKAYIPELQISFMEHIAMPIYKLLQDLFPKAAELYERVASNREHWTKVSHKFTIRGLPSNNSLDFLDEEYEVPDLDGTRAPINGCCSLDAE

## CCc1nc2c(c(CO)nn2C(C)c2ccc(C(F)(F)F)cc2)c(=O)[nH]1 (single isomer, unassigned) [Example 301, (R)- or (S)-6-Ethyl-3-(hydroxymethyl)-1-{1-[4-(trifluoromethyl)phenyl]ethyl}-1,5-dihydro-4H-pyrazolo[3,4-d]pyrimidin-4-one]
  Ki: 4.7 nM

## Cc1nc2c(c(CO)nn2C(C)c2ccc(C(F)(F)F)cc2I)c(=O)[nH]1 (single isomer, unassigned) [Example 141, (S)- or (R)-3-(Hydroxymethyl)-1-(1-(2-iodo-4-(trifluoromethyl-)phenyl)ethyl)-6-methyl-1,5-dihydro-4H-pyrazolo[3,4-d]pyrimidin-4-one]
  Ki: 12 nM

## Cc1nc2c(c(CO)nn2C(C)c2ccc(C(F)(F)F)s2)c(=O)[nH]1 (single isomer, unassigned) [Example 155, (R)- or (S)-3-(Hydroxymethyl)-6-methyl-1-(1-(5-(trifluoromethyl)thiophen-2-yl)ethyl)-1H-pyrazolo[3,4-d]pyrimidin-4(5H)-one]
  Ki: ~1630 nM

## CC(c1ccc(C(F)(F)F)cc1)n1nc(-c2nnco2)c2c(=O)[nH]c(CC3CC3)nc21 (single isomer, unassigned) [Example 340, (R)- or (S)-6-(Cyclopropylmethyl)-3-(1,3,4-oxadiazol-2-yl)-1-(1-(4-(trifluoromethyl)phenyl)ethyl)-1,5-dihydro-4H-pyrazolo[3,4-d] pyrimidin-4-one]
  Ki: 2.2 nM

## CC(c1ccc(C(F)(F)F)cc1)n1nc(C#N)c2c(=O)[nH]c(CC3CCCC3)nc21 (single isomer, unassigned) [Example 350]
  Ki: 62 nM

## CC(c1ccc(C(F)(F)F)cc1)n1nc(CO)c2c(=O)[nH]c(C3CC3)nc21 (single isomer, unassigned) [Example 299, (R)- or (S)-6-Cyclopropyl-3-(hydroxymethyl)-1-{1-[4-(trifluoromethyl)phenyl]ethyl}-1,5-dihydro-4H-pyrazolo[3,4-d]pyrimidin-4-one]
  Ki: 157 nM

## CC(c1ccc(C(F)(F)F)cc1)n1nc(CO)c2c(=O)[nH]c(CC3CCCC3)nc21 (single isomer, unassigned) [Example 307, (R)- or (S)-6-(Cyclopentyl-methyl)-3-(hydroxymethyl)-1-(1-(4-(trifluoromethyl)-phenyl)ethyl)-1,5-dihydro-4H-pyrazolo[3,4-d]pyrimidin-4-one]
  Ki: 13 nM

## CC(=O)NCc1nn(C(C)c2ccc(C(F)(F)F)cc2)c2nc(C)[nH]c(=O)c12 (single isomer, unassigned) [Example 276]
  Ki: ~1520 nM

## Cc1nc2c(c(CO)nn2C(C)c2ccc(Cl)s2)c(=O)[nH]1 (single isomer, unassigned) [Example 154, (S)- or (R)-1-(1-(5-Chlorothiophen-2-yl)ethyl)-3-(hydroxymethyl)-6-methyl-1H-pyrazolo[3,4-d]pyrimidin-4(5H)-one]
  Ki: 18 nM

## CCc1nc2c(c(CO)nn2C(C)c2ccc(C(F)(F)F)cc2)c(=O)[nH]1 (single isomer, unassigned) [Example 302, (S)- or (R)-6-Ethyl-3-(hydroxymethyl)-1-{1-[4-(trifluoromethyl)phenyl]ethyl}-1,5-dihydro-4H-pyrazolo[3,4-d]pyrimidin-4-one]
  Ki: 116 nM

## Cc1nc2c(c(CO)nn2C(C)c2ccc(C3(C)CC3)cc2)c(=O)[nH]1 (single isomer, unassigned) [Example 144, (S)- or (R)-3-(Hydroxymethyl)-6-methyl-1-(1-(4-(1-methylcyclopropyl)phenyl)ethyl)-1H-pyrazolo[3,4-d]pyrimidin-4(5H)-one]
  Ki: 0.59 nM

## Cc1nc2c(c(-c3ccco3)nn2C(C)c2ccc(C(F)(F)F)cc2)c(=O)[nH]1 (single isomer, unassigned) [Example 75, (S)- or (R)-3-(Furan-2-yl)-6-methyl-1-(1-(4-(trifluoromethyl)phenyl)ethyl)-1H-pyrazolo[3,4-d]pyrimidin-4(5H)-one]
  Ki: 203 nM

## Cc1nc2c(c(CO)nn2C(C)c2c(F)cc(C(F)(F)F)cc2F)c(=O)[nH]1 (single isomer, unassigned) [Example 136]
  Ki: 5 nM

## CCCc1nc2c(c(CO)nn2C(C)c2ccc(C(F)(F)F)cc2)c(=O)[nH]1 (single isomer, unassigned) [Example 304, (S)- or (R)-3-(Hydroxymethyl)-6-propyl-1-(1-(4-(trifluoromethyl)phenyl)ethyl)-1,5-dihydro-4H-pyrazolo[3,4-d]pyrimidin-4-one]
  Ki: 263 nM

## Cc1nc2c(c(C(F)F)nn2C(C)c2ccc(OC(F)F)cc2)c(=O)[nH]1 (single isomer, unassigned) [Example 181, (R)- or (S)-1-(1-(4-(Difluoromethoxy)phenyl)ethyl)-3-(difluoromethyl)-6-methyl-1H-pyrazolo[3,4-d]pyrimidin-4(5H)-one]
  Ki: 82 nM

## Cc1nc2c(c(CO)nn2C(c2ccc(C(F)(F)F)c(F)c2)C2(C)CC2)c(=O)[nH]1 (single isomer, unassigned) [Example 15, (S)- or (R)-1-((3-Fluoro-4-(trifluoromethyl)phenyl)(1-methylcyclopropyl)methyl)-3-(hydroxymethyl)-6-methyl-1H-pyrazolo[3,4-d]pyrimidin-4(5H)-one]
  Ki: 154 nM

## Cc1nc2c(c(C3CCCO3)nn2C(C)c2ccc(C(F)(F)F)cc2)c(=O)[nH]1 (single isomer, unassigned) [Example 73, (S, S)- or (S, R)- or (R, R)- or (R, S)-6-Methyl-3-(-tetrahydrofuran-2-yl)-1-(-l-(4-(trifluoromethyl)phenyl)ethyl)-1H-pyrazolo[3,4-d]pyrimidin-4(5H)-one]
  Ki: 423 nM

## Cc1nc2c(c(CO)nn2C(C)c2ccc(C(F)(F)F)s2)c(=O)[nH]1 (single isomer, unassigned) [Example 156, (S)- or (R)-3-(Hydroxymethyl)-6-methyl-1-(1-(5-(trifluoromethyl)thiophen-2-yl)ethyl)-1H-pyrazolo[3,4-d]pyrimidin-4(5H)-one]
  Ki: 8.5 nM

## CC1CCC(Cc2nc3c(c(CO)nn3C(C)c3ccc(C(F)(F)F)cc3)c(=O)[nH]2)O1 (racemic) [Example 298, 3-(Hydroxymethyl)-6-[(5-methyltetrahydrofuran-2-yl)methyl]-1-{1-[4-(trifluoromethyl)phenyl]ethyl}-1,5-dihydro-4H-pyrazolo[3,4-d]pyrimidin-4-one]
  Ki: 62 nM

## CC(c1ccc(C(F)(F)F)cc1)n1nc(CO)c2c(=O)[nH]c(C3CCCO3)nc21 (single isomer, unassigned) [Example 314, (S,R)- or (R,R)- or (S,S)- or (R,S)-3-(Hydroxymethyl)-6-(tetrahydrofuran-2-yl)-1-(1-(4-(trifluoromethyl)-phenyl)ethyl)-1,5-dihydro-4H-pyrazolo[3,4-d]pyrimidin-4-one]
  Ki: 38 nM

## CC(c1ccc(C(F)(F)F)cc1)n1nc(CO)c2c(=O)[nH]c(C3CCCO3)nc21 (single isomer, unassigned) [Example 311, (R,R)- or (S,S)- or (R,S)- or (S,R)-3-(Hydroxymethyl)-6-(tetrahydrofuran-2-yl)-1-(1-(4-(trifluoromethyl)-phenyl)ethyl)-1,5-dihydro-4H-pyrazolo[3,4-d]pyrimidin-4-one]
  Ki: ~1210 nM

## COCC(c1ccc(C(F)(F)F)cc1)n1nc(CO)c2c(=O)[nH]c(C)nc21 (single isomer, unassigned) [Example 100, (R)- or (S)-3-(Hydroxymethyl)-1-(2-methoxy-1-(4-(trifluoromethyl)phenyl)ethyl)-6-methyl-1H-pyrazolo[3,4-d]pyrimidin-4(5H)-one]
  Ki: ~1670 nM

## Cc1nc2c(c(CO)nn2C(CC(F)(F)F)c2ccc(C(F)(F)F)cc2)c(=O)[nH]1 (single isomer, unassigned) [Example 97, (S)- or (R)-3-(Hydroxymethyl)-6-methyl-1-(3,3,3-trifluoro-1-(4-(trifluoromethyl)phenyl)propyl)-1H-pyrazolo[3,4-d]pyrimidin-4(5H)-one]
  Ki: 467 nM
